{
  "source": "patent US6339045B1",
  "about": "“N-(unsubstituted or substituted)-4-substituted-6-(unsubstituted or substituted)phenoxy-2-pyridinecarboxamides or thiocarboxamides, processes for producing the same, and herbicides” (Kureha Kagaku Kogyo Kabushiki Kaisha, priority 1995, dated 2002)",
  "key": {"[1]": {"test_system": "cleavers (Galium aparine)", "experiment": "Herbicidal effect by foliage and soil treatment", "type": "in vivo", "details": "10 g ai/10a, evaluated after 14 days", "method_in_brief": "(§1)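 Seedlings grown in granular soil in a 19–25 °C greenhouse to the cotyledon–two-leaf stage were sprayed over foliage and soil with compound in Tween 20/water at a set application rate. Growth was scored on a rating scale against untreated plants after 14 days.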"}, "[2]": {"test_system": "field bindweed (Convolvulus arvensis)", "experiment": "Herbicidal effect by foliage and soil treatment", "type": "in vivo", "details": "10 g ai/10a, evaluated after 14 days", "method_in_brief": "as §1"}, "[3]": {"test_system": "ivyleafspeedwell (Veronica hederaefolia)", "experiment": "Herbicidal effect by foliage and soil treatment", "type": "in vivo", "details": "10 g ai/10a, evaluated after 14 days", "method_in_brief": "as §1"}, "[4]": {"test_system": "redroot pigweed (Amaranthus retroflexus)", "experiment": "Herbicidal effect by foliage and soil treatment", "type": "in vivo", "details": "10 g ai/10a, evaluated after 14 days", "method_in_brief": "as §1"}, "[5]": {"test_system": "common blackjack (Bidens pilosa)", "experiment": "Herbicidal effect by foliage and soil treatment", "type": "in vivo", "details": "10 g ai/10a, evaluated after 14 days", "method_in_brief": "as §1"}, "[6]": {"test_system": "black nightshade (Solanum nigrum)", "experiment": "Herbicidal effect by foliage and soil treatment", "type": "in vivo", "details": "10 g ai/10a, evaluated after 14 days", "method_in_brief": "as §1"}, "[7]": {"test_system": "kediock (Sinapis arvensis)", "experiment": "Herbicidal effect by foliage and soil treatment", "type": "in vivo", "details": "10 g ai/10a, evaluated after 14 days", "method_in_brief": "as §1"}, "[8]": {"test_system": "common chickweed (Stellaria media)", "experiment": "Herbicidal effect by foliage and soil treatment", "type": "in vivo", "details": "10 g ai/10a, evaluated after 14 days", "method_in_brief": "as §1"}, "[9]": {"test_system": "sicklepod (Cassia obtusifolia)", "experiment": "Herbicidal effect by foliage and soil treatment", "type": "in vivo", "details": "10 g ai/10a, evaluated after 14 days", "method_in_brief": "as §1"}, "[10]": {"test_system": "velvetleaf (Abutilon theophrasti)", "experiment": "Herbicidal effect by foliage and soil treatment", "type": "in vivo", "details": "10 g ai/10a, evaluated after 14 days", "method_in_brief": "as §1"}, "[11]": {"test_system": "wild chamomile (Matricaria chamomilla)", "experiment": "Herbicidal effect by foliage and soil treatment", "type": "in vivo", "details": "10 g ai/10a, evaluated after 14 days", "method_in_brief": "as §1"}},
  "data": [
    {"smiles": "CC[S+]([O-])CCNC(=O)c1cc(OC)cc(Oc2cccc(C(F)(F)F)c2)n1", "note": "(stereo not drawn) [Compound I-69, N-{2-(ethylsulfinyl)ethyl}-4-methoxy-6-{3-(trifluoromethyl)phenoxy}-2-pyridine carboxamide]", "values": [
      {"measurement": "herbicidal activity rating, GA (Galium aparine)", "setting": "[1]", "value": "5 (percentage of weeds killed was not less than 80%)"},
      {"measurement": "herbicidal activity rating, CA (Convolvulus arvensis)", "setting": "[2]", "value": "4 (percentage of weeds killed was not less than 60% and less than 80%)"},
      {"measurement": "herbicidal activity rating, VH (Veronica hederaefolia)", "setting": "[3]", "value": "5 (percentage of weeds killed was not less than 80%)"},
      {"measurement": "herbicidal activity rating, AR (Amaranthus retroflexus)", "setting": "[4]", "value": "5 (percentage of weeds killed was not less than 80%)"},
      {"measurement": "herbicidal activity rating, BP (Bidens pilosa)", "setting": "[5]", "value": "3 (percentage of weeds killed was not less than 40% and less than 60%)"},
      {"measurement": "herbicidal activity rating, SN (Solanum nigrum)", "setting": "[6]", "value": "5 (percentage of weeds killed was not less than 80%)"},
      {"measurement": "herbicidal activity rating, SA (Sinapis arvensis)", "setting": "[7]", "value": "5 (percentage of weeds killed was not less than 80%)"},
      {"measurement": "herbicidal activity rating, SM (Stellaria media)", "setting": "[8]", "value": "4 (percentage of weeds killed was not less than 60% and less than 80%)"},
      {"measurement": "herbicidal activity rating, CO (Cassia obtusifolia)", "setting": "[9]", "value": "5 (percentage of weeds killed was not less than 80%)"},
      {"measurement": "herbicidal activity rating, AT (Abutilon theophrasti)", "setting": "[10]", "value": "5 (percentage of weeds killed was not less than 80%)"},
      {"measurement": "herbicidal activity rating, MC (Matricaria chamomilla)", "setting": "[11]", "value": "3 (percentage of weeds killed was not less than 40% and less than 60%)"},
      {"measurement": "melting point", "value": "77 to 79", "unit": "°C"}
    ]}
  ]
}
